{
  "source": "the kinase profiling compilation of Christmann-Franck et al. (2016)",
  "assay_in_all_cases": "KINOMEscan competition binding",
  "details_in_all_cases": "compound 0.1 µM",
  "key": {"SGK1 (human)": {"biological_target": "SGK1 (human) (UniProt O00141)"}, "ACVR2B (human)": {"biological_target": "ACVR2B (human) (UniProt Q13705)"}, "IKBKE (human)": {"biological_target": "IKBKE (human) (UniProt Q14164)"}, "[1]": {"test_system": "PIK3CA (human), P42336 [I800L]"}, "CSNK1E (human)": {"biological_target": "CSNK1E (human) (UniProt P49674)", "sequence (P49674 whole entry, looked up)": "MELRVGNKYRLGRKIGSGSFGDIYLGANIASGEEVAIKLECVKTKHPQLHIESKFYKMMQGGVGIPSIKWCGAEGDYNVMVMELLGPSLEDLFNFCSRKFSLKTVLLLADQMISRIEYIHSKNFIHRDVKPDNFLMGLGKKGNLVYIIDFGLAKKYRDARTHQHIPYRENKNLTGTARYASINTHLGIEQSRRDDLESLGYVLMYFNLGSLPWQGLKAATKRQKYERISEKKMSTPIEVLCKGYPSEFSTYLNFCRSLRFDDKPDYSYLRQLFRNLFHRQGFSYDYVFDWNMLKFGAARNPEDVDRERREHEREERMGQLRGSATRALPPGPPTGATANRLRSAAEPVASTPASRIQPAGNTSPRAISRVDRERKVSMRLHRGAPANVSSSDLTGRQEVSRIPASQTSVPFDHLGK"}, "RPS6KA1 KD2 (human)": {"biological_target": "RPS6KA1 KD2 (human) (UniProt Q15418)"}, "TLK1 (human)": {"biological_target": "TLK1 (human) (UniProt Q9UKI8)", "sequence (Q9UKI8 whole entry, looked up)": "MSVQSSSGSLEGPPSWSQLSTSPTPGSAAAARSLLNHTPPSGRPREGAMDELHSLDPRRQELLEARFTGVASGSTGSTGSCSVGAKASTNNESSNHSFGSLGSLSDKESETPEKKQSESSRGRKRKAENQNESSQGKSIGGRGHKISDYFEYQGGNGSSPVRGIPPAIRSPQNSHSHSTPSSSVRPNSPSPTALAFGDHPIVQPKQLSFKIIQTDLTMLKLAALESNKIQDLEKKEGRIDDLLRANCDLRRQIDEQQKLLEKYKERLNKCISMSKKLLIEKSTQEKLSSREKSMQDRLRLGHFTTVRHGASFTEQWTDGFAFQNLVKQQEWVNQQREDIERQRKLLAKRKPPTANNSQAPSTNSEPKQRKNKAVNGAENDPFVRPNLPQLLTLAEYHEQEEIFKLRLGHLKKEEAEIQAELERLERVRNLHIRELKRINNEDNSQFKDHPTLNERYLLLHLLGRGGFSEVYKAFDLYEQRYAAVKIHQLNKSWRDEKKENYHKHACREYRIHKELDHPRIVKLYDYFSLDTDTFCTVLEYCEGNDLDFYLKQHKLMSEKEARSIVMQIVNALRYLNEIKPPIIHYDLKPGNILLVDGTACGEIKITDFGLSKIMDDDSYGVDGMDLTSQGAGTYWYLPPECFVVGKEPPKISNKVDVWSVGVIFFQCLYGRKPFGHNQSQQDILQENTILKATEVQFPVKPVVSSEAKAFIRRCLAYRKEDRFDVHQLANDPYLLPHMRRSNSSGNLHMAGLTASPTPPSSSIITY"}, "ADCK3 (human)": {"biological_target": "ADCK3 (human) (UniProt Q8NI60)", "sequence (Q8NI60 whole entry, looked up)": "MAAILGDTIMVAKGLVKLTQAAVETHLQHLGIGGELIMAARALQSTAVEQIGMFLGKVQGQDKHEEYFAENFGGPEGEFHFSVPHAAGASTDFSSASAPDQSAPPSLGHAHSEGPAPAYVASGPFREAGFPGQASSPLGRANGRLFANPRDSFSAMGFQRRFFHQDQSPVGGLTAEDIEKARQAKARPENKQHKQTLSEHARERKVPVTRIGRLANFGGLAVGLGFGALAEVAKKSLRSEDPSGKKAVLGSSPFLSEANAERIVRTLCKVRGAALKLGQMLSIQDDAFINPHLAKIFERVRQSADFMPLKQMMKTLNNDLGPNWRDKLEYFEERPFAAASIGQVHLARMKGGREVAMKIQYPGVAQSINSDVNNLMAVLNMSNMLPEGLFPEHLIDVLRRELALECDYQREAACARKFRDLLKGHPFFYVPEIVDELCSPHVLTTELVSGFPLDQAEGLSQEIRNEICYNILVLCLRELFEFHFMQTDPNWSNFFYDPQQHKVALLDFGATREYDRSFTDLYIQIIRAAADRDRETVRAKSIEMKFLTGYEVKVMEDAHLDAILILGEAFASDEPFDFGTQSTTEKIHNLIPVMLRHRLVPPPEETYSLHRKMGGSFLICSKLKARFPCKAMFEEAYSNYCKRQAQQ"}, "IKBKB (human)": {"biological_target": "IKBKB (human) (UniProt O14920)"}, "MAP3K7 (human)": {"biological_target": "MAP3K7 (human) (UniProt O43318)"}, "NTRK1 (human)": {"biological_target": "NTRK1 (human) (UniProt P04629)", "sequence (P04629 whole entry, looked up)": "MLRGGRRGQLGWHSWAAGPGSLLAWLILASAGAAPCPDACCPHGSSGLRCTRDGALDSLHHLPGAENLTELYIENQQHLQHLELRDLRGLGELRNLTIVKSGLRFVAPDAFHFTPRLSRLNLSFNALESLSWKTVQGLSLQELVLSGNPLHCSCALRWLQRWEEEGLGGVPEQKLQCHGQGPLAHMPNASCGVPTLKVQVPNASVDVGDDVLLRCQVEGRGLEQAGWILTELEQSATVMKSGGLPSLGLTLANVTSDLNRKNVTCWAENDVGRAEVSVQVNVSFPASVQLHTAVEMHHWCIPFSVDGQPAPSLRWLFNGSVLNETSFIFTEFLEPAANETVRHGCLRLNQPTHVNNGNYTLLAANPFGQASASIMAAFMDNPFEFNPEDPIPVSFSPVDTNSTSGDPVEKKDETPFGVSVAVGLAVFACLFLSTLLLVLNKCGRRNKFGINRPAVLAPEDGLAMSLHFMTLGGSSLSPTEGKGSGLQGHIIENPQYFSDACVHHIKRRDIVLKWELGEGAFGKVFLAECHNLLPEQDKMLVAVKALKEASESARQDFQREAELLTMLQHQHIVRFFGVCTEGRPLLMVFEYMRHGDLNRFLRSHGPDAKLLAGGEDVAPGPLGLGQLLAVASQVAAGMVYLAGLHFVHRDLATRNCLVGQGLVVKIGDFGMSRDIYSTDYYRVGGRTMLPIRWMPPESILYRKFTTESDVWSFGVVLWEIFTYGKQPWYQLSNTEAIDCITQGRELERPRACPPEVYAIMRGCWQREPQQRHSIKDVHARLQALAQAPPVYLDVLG"}, "DAPK1 (human)": {"biological_target": "DAPK1 (human) (UniProt P53355)"}, "FYN (human)": {"biological_target": "FYN (human) (UniProt P06241)"}, "BMPR1B (human)": {"biological_target": "BMPR1B (human) (UniProt O00238)"}, "FGFR4 (human)": {"biological_target": "FGFR4 (human) (UniProt P22455)"}, "MAP2K3 (human)": {"biological_target": "MAP2K3 (human) (UniProt P46734)", "sequence (P46734 whole entry, looked up)": "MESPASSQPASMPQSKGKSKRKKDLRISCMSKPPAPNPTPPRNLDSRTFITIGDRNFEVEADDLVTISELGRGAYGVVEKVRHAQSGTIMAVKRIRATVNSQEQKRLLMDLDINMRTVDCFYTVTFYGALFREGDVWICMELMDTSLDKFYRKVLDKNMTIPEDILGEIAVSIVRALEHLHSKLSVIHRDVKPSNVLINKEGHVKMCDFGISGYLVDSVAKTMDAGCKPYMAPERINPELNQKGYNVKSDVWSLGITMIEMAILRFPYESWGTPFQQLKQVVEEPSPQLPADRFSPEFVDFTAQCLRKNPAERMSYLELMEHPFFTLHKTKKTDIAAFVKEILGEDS"}, "MARK1 (human)": {"biological_target": "MARK1 (human) (UniProt Q9P0L2)"}, "CSNK1D (human)": {"biological_target": "CSNK1D (human) (UniProt P48730)"}, "[2]": {"biological_target": "JAK3 JH1 catalytic (human) (UniProt P52333)"}, "STK32B (human)": {"biological_target": "STK32B (human) (UniProt Q9NY57)", "sequence (Q9NY57 whole entry, looked up)": "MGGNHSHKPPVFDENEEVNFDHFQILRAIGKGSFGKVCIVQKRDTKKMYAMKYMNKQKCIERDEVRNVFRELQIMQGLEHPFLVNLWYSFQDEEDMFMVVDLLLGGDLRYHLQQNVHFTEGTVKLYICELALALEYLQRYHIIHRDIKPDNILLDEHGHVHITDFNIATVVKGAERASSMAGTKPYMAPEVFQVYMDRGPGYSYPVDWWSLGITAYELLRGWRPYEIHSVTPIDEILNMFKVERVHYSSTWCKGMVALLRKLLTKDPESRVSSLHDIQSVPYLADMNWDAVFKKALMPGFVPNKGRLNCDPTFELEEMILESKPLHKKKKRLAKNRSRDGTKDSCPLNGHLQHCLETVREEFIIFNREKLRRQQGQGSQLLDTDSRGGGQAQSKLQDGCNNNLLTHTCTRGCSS"}, "PRKAA2 (human)": {"biological_target": "PRKAA2 (human) (UniProt P54646)"}, "PRKCE (human)": {"biological_target": "PRKCE (human) (UniProt Q02156)"}, "MAP3K2 (human)": {"biological_target": "MAP3K2 (human) (UniProt Q9Y2U5)"}, "LYN (human)": {"biological_target": "LYN (human) (UniProt P07948)"}, "MYO3B (human)": {"biological_target": "MYO3B (human) (UniProt Q8WXR4)"}, "MYLK3 (human)": {"biological_target": "MYLK3 (human) (UniProt Q32MK0)"}, "IRAK3 (human)": {"biological_target": "IRAK3 (human) (UniProt Q9Y616)", "sequence (Q9Y616 whole entry, looked up)": "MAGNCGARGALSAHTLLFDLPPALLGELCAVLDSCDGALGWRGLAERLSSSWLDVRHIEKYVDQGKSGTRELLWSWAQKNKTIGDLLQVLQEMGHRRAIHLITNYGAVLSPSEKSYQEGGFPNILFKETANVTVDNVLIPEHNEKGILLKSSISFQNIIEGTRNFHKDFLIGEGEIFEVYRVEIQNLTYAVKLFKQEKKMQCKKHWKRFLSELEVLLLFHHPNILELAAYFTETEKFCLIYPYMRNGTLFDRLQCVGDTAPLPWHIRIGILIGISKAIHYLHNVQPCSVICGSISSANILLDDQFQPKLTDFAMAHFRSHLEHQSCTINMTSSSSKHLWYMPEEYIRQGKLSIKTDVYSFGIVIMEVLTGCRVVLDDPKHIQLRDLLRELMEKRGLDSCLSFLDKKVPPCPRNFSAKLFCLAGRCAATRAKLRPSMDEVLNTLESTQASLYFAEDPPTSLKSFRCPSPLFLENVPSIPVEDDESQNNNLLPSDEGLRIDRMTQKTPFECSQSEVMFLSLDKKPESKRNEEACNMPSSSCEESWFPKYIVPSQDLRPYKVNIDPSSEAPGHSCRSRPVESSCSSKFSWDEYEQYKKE"}, "ZAP70 (human)": {"biological_target": "ZAP70 (human) (UniProt P43403)"}, "ULK3 (human)": {"biological_target": "ULK3 (human) (UniProt Q6PHR2)"}, "PRKCH (human)": {"biological_target": "PRKCH (human) (UniProt P24723)"}, "STK17A (human)": {"biological_target": "STK17A (human) (UniProt Q9UEE5)"}, "MAP2K5 (human)": {"biological_target": "MAP2K5 (human) (UniProt Q13163)"}, "PHKG1 (human)": {"biological_target": "PHKG1 (human) (UniProt Q16816)"}, "STK36 (human)": {"biological_target": "STK36 (human) (UniProt Q9NRP7)"}, "TGFBR1 (human)": {"biological_target": "TGFBR1 (human) (UniProt P36897)", "sequence (P36897 whole entry, looked up)": "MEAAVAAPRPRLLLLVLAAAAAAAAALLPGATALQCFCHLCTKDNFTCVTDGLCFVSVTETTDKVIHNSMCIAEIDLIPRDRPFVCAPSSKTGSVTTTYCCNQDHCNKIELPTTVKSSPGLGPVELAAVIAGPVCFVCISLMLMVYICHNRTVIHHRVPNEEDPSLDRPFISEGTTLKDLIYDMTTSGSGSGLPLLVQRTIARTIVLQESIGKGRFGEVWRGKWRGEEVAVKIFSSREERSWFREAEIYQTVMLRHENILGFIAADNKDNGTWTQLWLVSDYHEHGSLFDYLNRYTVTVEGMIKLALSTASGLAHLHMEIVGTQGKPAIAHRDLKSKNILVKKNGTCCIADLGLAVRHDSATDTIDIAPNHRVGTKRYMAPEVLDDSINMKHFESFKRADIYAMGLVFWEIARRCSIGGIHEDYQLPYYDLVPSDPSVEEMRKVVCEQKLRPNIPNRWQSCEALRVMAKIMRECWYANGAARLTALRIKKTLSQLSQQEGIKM"}, "CAMK2A (human)": {"biological_target": "CAMK2A (human) (UniProt Q9UQM7)"}, "MAP4K1 (human)": {"biological_target": "MAP4K1 (human) (UniProt Q92918)"}, "PRKD2 (human)": {"biological_target": "PRKD2 (human) (UniProt Q9BZL6)"}, "CSNK1G3 (human)": {"biological_target": "CSNK1G3 (human) (UniProt Q9Y6M4)", "sequence (Q9Y6M4 whole entry, looked up)": "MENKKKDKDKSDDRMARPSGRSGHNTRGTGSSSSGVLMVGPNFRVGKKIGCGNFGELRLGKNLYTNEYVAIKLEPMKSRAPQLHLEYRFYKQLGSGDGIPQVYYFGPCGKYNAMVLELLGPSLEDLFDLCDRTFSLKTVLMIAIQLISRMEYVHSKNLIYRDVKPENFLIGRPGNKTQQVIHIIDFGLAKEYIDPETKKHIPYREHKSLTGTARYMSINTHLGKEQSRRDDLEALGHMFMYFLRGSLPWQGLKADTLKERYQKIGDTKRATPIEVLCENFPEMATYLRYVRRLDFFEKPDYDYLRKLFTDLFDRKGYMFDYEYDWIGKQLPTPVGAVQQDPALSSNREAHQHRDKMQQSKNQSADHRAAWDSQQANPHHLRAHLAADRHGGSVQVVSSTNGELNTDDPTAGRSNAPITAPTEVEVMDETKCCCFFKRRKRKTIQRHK"}, "MAP4K3 (human)": {"biological_target": "MAP4K3 (human) (UniProt Q8IVH8)"}},
  "data": [
    {"smiles": "CCc1ccc(C(=O)Nc2cc(CN3CCN(C)CC3)cc(C(F)(F)F)c2)cc1C#Cc1cnc2ccnn2c1", "values": [
      {"measurement": "kinase still bound, per cent of control", "setting": "SGK1 (human)", "result": 93, "unit": "%"},
      {"measurement": "kinase still bound, per cent of control", "setting": "ACVR2B (human)", "result": 100, "unit": "%"},
      {"measurement": "kinase still bound, per cent of control", "setting": "IKBKE (human)", "result": 100, "unit": "%"},
      {"measurement": "kinase still bound, per cent of control", "setting": "[1]", "result": 100, "unit": "%"},
      {"measurement": "kinase still bound, per cent of control", "setting": "CSNK1E (human)", "result": 85, "unit": "%"},
      {"measurement": "kinase still bound, per cent of control", "setting": "RPS6KA1 KD2 (human)", "result": 100, "unit": "%"},
      {"measurement": "kinase still bound, per cent of control", "setting": "TLK1 (human)", "result": 100, "unit": "%"},
      {"measurement": "kinase still bound, per cent of control", "setting": "ADCK3 (human)", "result": 90, "unit": "%"},
      {"measurement": "kinase still bound, per cent of control", "setting": "IKBKB (human)", "result": 97, "unit": "%"},
      {"measurement": "kinase still bound, per cent of control", "setting": "MAP3K7 (human)", "result": 100, "unit": "%"},
      {"measurement": "kinase still bound, per cent of control", "setting": "NTRK1 (human)", "result": 75, "unit": "%"},
      {"measurement": "kinase still bound, per cent of control", "setting": "DAPK1 (human)", "result": 100, "unit": "%"},
      {"measurement": "kinase still bound, per cent of control", "setting": "FYN (human)", "result": 72, "unit": "%"},
      {"measurement": "kinase still bound, per cent of control", "setting": "BMPR1B (human)", "result": 100, "unit": "%"},
      {"measurement": "kinase still bound, per cent of control", "setting": "FGFR4 (human)", "result": 86, "unit": "%"},
      {"measurement": "kinase still bound, per cent of control", "setting": "MAP2K3 (human)", "result": 100, "unit": "%"},
      {"measurement": "kinase still bound, per cent of control", "setting": "MARK1 (human)", "result": 74, "unit": "%"},
      {"measurement": "kinase still bound, per cent of control", "setting": "CSNK1D (human)", "result": 77, "unit": "%"},
      {"measurement": "kinase still bound, per cent of control", "setting": "[2]", "result": 58, "unit": "%"},
      {"measurement": "kinase still bound, per cent of control", "setting": "STK32B (human)", "result": 100, "unit": "%"},
      {"measurement": "kinase still bound, per cent of control", "setting": "PRKAA2 (human)", "result": 100, "unit": "%"},
      {"measurement": "kinase still bound, per cent of control", "setting": "PRKCE (human)", "result": 94, "unit": "%"},
      {"measurement": "kinase still bound, per cent of control", "setting": "MAP3K2 (human)", "result": 100, "unit": "%"},
      {"measurement": "kinase still bound, per cent of control", "setting": "LYN (human)", "result": 35, "unit": "%"},
      {"measurement": "kinase still bound, per cent of control", "setting": "MYO3B (human)", "result": 100, "unit": "%"},
      {"measurement": "kinase still bound, per cent of control", "setting": "MYLK3 (human)", "result": 100, "unit": "%"},
      {"measurement": "kinase still bound, per cent of control", "setting": "IRAK3 (human)", "result": 80, "unit": "%"},
      {"measurement": "kinase still bound, per cent of control", "setting": "ZAP70 (human)", "result": 100, "unit": "%"},
      {"measurement": "kinase still bound, per cent of control", "setting": "ULK3 (human)", "result": 100, "unit": "%"},
      {"measurement": "kinase still bound, per cent of control", "setting": "PRKCH (human)", "result": 100, "unit": "%"},
      {"measurement": "kinase still bound, per cent of control", "setting": "STK17A (human)", "result": 100, "unit": "%"},
      {"measurement": "kinase still bound, per cent of control", "setting": "MAP2K5 (human)", "result": 100, "unit": "%"},
      {"measurement": "kinase still bound, per cent of control", "setting": "PHKG1 (human)", "result": 85, "unit": "%"},
      {"measurement": "kinase still bound, per cent of control", "setting": "STK36 (human)", "result": 84, "unit": "%"},
      {"measurement": "kinase still bound, per cent of control", "setting": "TGFBR1 (human)", "result": 100, "unit": "%"},
      {"measurement": "kinase still bound, per cent of control", "setting": "CAMK2A (human)", "result": 92, "unit": "%"},
      {"measurement": "kinase still bound, per cent of control", "setting": "MAP4K1 (human)", "result": 100, "unit": "%"},
      {"measurement": "kinase still bound, per cent of control", "setting": "PRKD2 (human)", "result": 100, "unit": "%"},
      {"measurement": "kinase still bound, per cent of control", "setting": "CSNK1G3 (human)", "result": 78, "unit": "%"},
      {"measurement": "kinase still bound, per cent of control", "setting": "MAP4K3 (human)", "result": 100, "unit": "%"}
    ]}
  ]
}
